# Data reported in PMC6271467, “The Anthraquinone Derivatives from the Fungus Alternaria sp. XZSBG-1 from the Saline Lake in Bange, Tibet, China” (Molecules, 2014).
# Columns and labels:
# Assay type in all cases: cell-based
# HeLa = assay: Cytotoxicity, MTT assay, HeLa; conditions: Homo sapiens, 48 h exposure, HeLa cells
# Description: (§1) Compounds 1–11 were evaluated for cytotoxic activity against several human cancer cell lines by MTT assay. […] The other compounds show no notable inhibitory activity against any tested cancer cell lines.
# (§2) MCF-7/ADR, HeLa, HCT-116 cell lines were cultured in Dulbeccos’ modification Eagle’s medium (DMEM, Invitrogen, Carlsbad, CA, USA) supplemented with 10% fetal bovine serum (FBS, Hyclone, Logan, UT, USA), 2 mM L-glutamine, 100 μg/mL streptomycin and 100 U/mL penicillin (Invitrogen). The cells were incubated at 37 °C in a humidified atmosphere with 5% CO2.
# (§3) Cells were harvested during logarithmic growth phase and seeded in 96-well plates at a density of 1 × 10^4 cells/mL, and cultured at 37 °C in a humidified incubator (5% CO2) for 24 h, followed by exposure to various concentrations of compounds tested for 48 h. Subsequently 20 μL of MTT (Genview, Houston, TX, USA) solution (5 mg/mL) was added to each well and mixed, the cells were then incubated for an additional 4 h. Culture supernatant was moved, 150 μL of DMSO (Sangon Biotech, Shanghai, China) was added to each well to fully dissolve the MTT-formazan crystals. Cell growth inhibition was determined by measuring the absorbance (Abs) at λ = 570 nm using a microplate reader and calculated according to the following equation: Growth inhibition = (1 − OD of treated cells/OD of control cells) × 100%
# (§4) The half maximal inhibitory concentrations (IC50) were obtained from liner regression analysis of the concentration-response curves plotted for each tested compound [17, 18].
# HCT-116 = assay: Cytotoxicity, MTT assay, HCT-116; conditions: Homo sapiens, 48 h exposure, HCT-116 cells
# Description: as §1, §2, §3, §4
# MCF-7/ADR = assay: Cytotoxicity, MTT assay, MCF-7/ADR; conditions: Homo sapiens, NCI/ADR-RES, 48 h exposure, MCF-7/ADR cells
# Description: as §1, §2, §3, §4
Structure (SMILES),IC50 (HeLa),IC50 (HCT-116),IC50 (MCF-7/ADR)
"COc1cc(O)c2c(c1)C(=O)C13OC1(C2=O)[C@H](O)[C@@H](O)[C@@](C)(O)[C@H]3O (relative stereo) [Compound 1, (1R*,2R*,3R*,4R*)-1,2,3,4,8-pentahydroxy-6-methoxy-3-methyl-1,2,3,4-tetrahydro-4a,9a-epoxyanthracene-9,10-dione]",43.7 ± 4.02 µM,23.2 ± 2.85 µM,18.5 µM
"COc1cc(O)c2c(c1)C(=O)C1=C(C2=O)[C@H]([C@H]2C3=C(C(=O)c4cc(OC)cc(O)c4C3=O)[C@H](O)[C@](C)(O)[C@H]2O)[C@H](O)[C@@](C)(O)[C@H]1O (relative stereo) [Compound 2, (1S*,1'S*,2R*,2'R*,3S*,3'S*,4S*,4'S*)-1,1',2,2',3,3',5,5'-octahydroxy-7,7'-dimethoxy-2,2'-dimethyl-1,1',2,2',3,3',4,4'-octahydro-[4,4'-bianthracene]-9,9',10,10'-tetraone]",> 50 µM,> 50 µM,> 100 µM
"COc1cc(O)c2c(c1-c1c(OC)cc(O)c3c1C(=O)c1cc(C)c(O)cc1C3=O)C(=O)C1=C(C2=O)[C@H](O)[C@@H](O)[C@@](C)(O)[C@H]1O (relative stereo) [Compound 3, (1S*,2R*,3S*,4S*)-1,2,2',3,4,8,8'-heptahydroxy-6,6'-dimethoxy-3,3'-dimethyl-1,2,3,4-tetrahydro-[5,5'-bianthracene]-9,9',10,10'-tetraone]",> 50 µM,32.4 ± 1.57 µM,
"COc1cc(O)c2c(c1-c1c(OC)cc(O)c3c1C(=O)c1cc(C)c(O)cc1C3=O)C(=O)C1=C(C2=O)[C@@H](O)[C@@H](O)[C@@](C)(O)[C@H]1O (relative stereo) [Compound 4, (1R*,2R*,3S*,4S*)-1,2,2',3,4,8,8'-heptahydroxy-6,6'-dimethoxy-3,3' dimethyl-1,2,3,4-tetrahydro-5,5'-bianthracene-9,9',10,10'-tetraone]",> 100 µM,> 50 µM,> 50 µM
"COc1cc2c(c(-c3c(O)c(OC)cc4c3C(=O)C3=C(C4=O)[C@@H](O)[C@H](O)[C@](C)(O)[C@@H]3O)c1O)C(=O)C1=C(C2=O)[C@@H](O)[C@H](O)[C@](C)(O)[C@@H]1O [Compound 5, alterporriol E]",> 100 µM,> 100 µM,> 100 µM
"COc1cc(O)c2c(c1-c1c(OC)cc(O)c3c1C(=O)C1=C(C3=O)[C@@H](O)[C@H](O)[C@](C)(O)[C@@H]1O)C(=O)C1=C(C2=O)[C@@H](O)[C@H](O)[C@](C)(O)[C@@H]1O [Compound 6, alterporriol D]",> 100 µM,> 100 µM,> 100 µM
"COc1cc(O)c2c(c1)C(=O)c1cc(C)c(O)c(-c3c(OC)cc(O)c4c3C(=O)C3=C(C4=O)[C@H](O)[C@@H](O)[C@@](C)(O)[C@H]3O)c1C2=O [Compound 7, alterporriol N]",> 100 µM,> 100 µM,> 100 µM
"COc1cc(O)c2c(c1-c1c(OC)cc(O)c3c1C(=O)c1cc(C)c(O)cc1C3=O)C(=O)C1=C(C2=O)[C@@H](O)[C@H](O)[C@](C)(O)[C@H]1O [Compound 8, alterporriol A]",> 50 µM,> 50 µM,45 µM
"COc1cc(O)c2c(c1)C(=O)C1=C(C[C@@H](O)[C@@](C)(O)[C@@H]1O)C2=O [Compound 9, altersolanol C]",8.09 ± 0.89 µM,3.03 ± 0.05 µM,> 100 µM
"COc1cc(O)c2c(c1)C(=O)C1=C(C2=O)[C@H](O)[C@@H](O)[C@@](C)(O)[C@@H]1O [Compound 10, altersolanol A]",> 100 µM,> 100 µM,> 100 µM
"COc1cc(O)c2c(c1)C(=O)c1cc(C)c(O)cc1C2=O [Compound 11, macrosporin]",> 100 µM,> 100 µM,> 100 µM
"COc1cccc2c1C(=O)c1c(O)c3c(c(O)c1C2=O)C[C@@](O)(C(=O)CO)C[C@@H]3O[C@H]1C[C@H](N)[C@@H](O)[C@H](C)O1 [EPI, Epirubicin, reference compound]",0.48 ± 0.03 µM,0.96 ± 0.02 µM,2.36 µM
